# From patent publication US20260117070A1, “NEAR-INFRARED FLUORESCENT HEPTAMETHINE DYE CONJUGATES WITH FAVORABLE BLEACHING PROPERTIES” (HELMHOLTZ ZENTRUM MÜNCHEN DEUTSCHES FORSCHUNGSZENTRUM FÜR …, priority 2022, published 2026)
# Tests used:
# [1] = Procedure for determining photostability (bleaching in vitro, continuous 785 nm irradiation); assay type: physicochemical
# Protocol: 4C): Bleaching in vitro: Capillaries filled with 2.5 μM solutions in serum were continuously irradiated using a 785 nm laser (100 mW/cm^2) and frames were acquired for 20 minutes. Bleaching kinetics were extracted by analyzing the mean counts in an ROI overtime
# Imaging was performed on a custom-built setup. LUMICS laser unit LU0785DLU250-S70AN03 (25 W) 785 nm″ was used for excitation. Laser was externally controlled using a LUMICS laser diode control system. Laser output was coupled in a 4×1 fan-out fiber-optic bundle (THORLABS BF46LSO1) of 600 μm core diameter for each optical path. The output from the fiber was fixed in an excitation cube (THORLABS KCB1EC/M), reflected off of a mirror (THORLABS BBE1-E03), and passed through a positive achromat (THORLABS AC254-050-B), SP filter (THORLABS FESH800) and an engineered diffuser (THORLABS ED1-S20-MD or ED1-S50-MD) to provide uniform illumination over the working area. In a typical experiment, the excitation flux in the field of view was adjusted to be close to 100 mWcm^−2. Power density was determined using a THORLABS energy meter console PM100D in combination with a THORLABS S130C sensor (measurement uncertainty of ±3%). The working area was covered by blackout fabric (THORLABS BK5). Emitted light was directed through two filters (THORLABS FELH800) screwed onto a EDMUND OPTICS Acktar Hexa-Black 25 mm noise reduction extension tube, via a C-mount camera lens (NAVITAR SWIR-35) onto an NIR-camera (PCO Edge 4.2 or Prime BSI). The software μManager was used to externally control the camera. The assembly was partially enclosed to avoid excess light while enabling manipulation of the field of view during operation.
# For each dye (conjugate), solutions in H2O and FBS with an OD (785 nm)<1.0 in a 1 cm cuvette (HELLMA 115B-QS) were prepared. […] In order to be able to make useful comparison between different samples and experiments, the time axis was converted into a number of absorbance events by multiplication with the “absorptions per molecule per second”.
# MDA-MB-468 cells = assay: In vivo distribution of NIR-fluorescent Panitumumab conjugates in tumor bearing mice; settings: 24 hrs after intravenous injection; 3 μg or 100 μg dose
# From the text: FIG. 5: Comparing Pan-sNIR (NIR-fluorescent Panitumumab) and Pan-IRDye800CW in tumor bearing mice post intraveneous injection. Mice were generated by subcutaneous implantation of MDA-MB-468 cells.
Compound,"more photostable than NIR, IRDye®8000W ([1]; fetal bovine serum (FBS))",more stable than ICG ([1]; fetal bovine serum (FBS)),"bleaching slower than NIR, ICG and IRDye®8000W ([1]; water)",tumor signal than/over the liver (MDA-MB-468 cells)
"C#CCCCCNC(=O)C(=C\C=C\C1=[N+](CCCCS(=O)(=O)[O-])c2ccc(S(=O)(=O)[O-])cc2C1(C)C)/C=C/C=C1/N(CCCCS(=O)(=O)[O-])c2ccc(S(=O)(=O)[O-])cc2C1(C)C.[Na+].[Na+].[Na+] [sNIR, sodium 2-((1E,3Z,5E)-7-((E)-3,3-dimethyl-5-sulfonato-1-(4-sulfonatobutyl)indolin-2-ylidene)-4-(hex-5-yn-1-ylcarbamoyl)hepta-1,3,5-trien-1-yl)-3,3-dimethyl-1-(4-sulfonatobutyl)-3H-indol-1-ium-5-sulfonate]",2.5 times,1.6 times,3.5 times,–
"Pan-8000W: Panitumumab-IRDye800, prepared in a similar fashion [reference compound]",–,–,–,1.4-1.8 ×
